Measurements taken from PMC7835894 (Molecules, 2021).

Experiments:
Format in all cases: cell-based, human
Caco-2 cells [1] = assay: Cell cycle analysis (PI, flow cytometry); conditions: Caco-2, IC50 of retinoid
Protocol: The cell cycle analysis was performed using flow cytometry (Beckman Coulter, Brea, CA, USA). […] After incubation, cells were harvested, fixed with 70% alcohol overnight, and stained with PI (50 µg/mL). DNA content was measured by Beckman Coulter Epics XL flow cytometer and G0/G1, S, and G2/M cells were gated as appropriate using Flowing Software 2.5.1 (Turko Bioimaging, Turku, Finland).

Caco-2 cells [2] = assay: Transwell cell invasion assay; conditions: IC50 concentration; for inhibition in Caco-2 cell invasion compared to control: 24 h; for percentage inhibition of Caco-2 cell invasion: 48 h
Protocol: Caco-2 cell invasion was assessed using a QCM™ 24-well Colorimetric Cell Invasion Assay kit (Chemicon International, Temecula, CA, USA (Cat # ECM551)), according to the manufacturer’s instructions. Cells were starved of serum for 24 h. […] Inserts were further added into a 24-well plate containing 500 µL of 10% FBS-containing DMEM per well. After incubation for 24 or 48 h at 37 °C, remaining media was removed from the invasion chamber, and cells that had migrated to the other side of the membrane were stained with “Cell Stain” solution for 20 min at room temperature. Non-invaded cells were carefully removed from the upper side of the chamber with the help of cotton-tipped swabs. The stain of invaded cells was then extracted by 200 µL of extraction buffer in a clean well for 15 min at room temperature. Finally, 100 µL extracted stained solution was transferred into a 96-well plate and the optical density was measured at 490 nm with BioTek 800 TS microplate reader.

HT-29 = assay: MTT antiproliferation assay; conditions: for SI (selectivity index): HT-29, SI = IC50 (WI-38)/IC50 (cancer cell line); for IC50: Homo sapiens, HT-29, MTT, 24 h, mean ± SEM
Protocol: The antiproliferation and cytotoxicity were assessed using 3-(4,5-dimethylthiazol-2-yl)-2,5-diphenyltetrazolium bromide (MTT, Serva) colorimetric assay. To investigate the antiproliferation, all cell lines were seeded at a density of 20,000 cells per well in 96-well plates and allowed to adhere overnight. […] These concentrations were prepared by diluting the stock solutions with serum-free culture media. The negative control cells were those treated with 0.1% DMSO solvent alone. The treated cells were handled in reduced light and maintained under standard culture growth conditions for 24 h. After the incubation period, MTT powder was prepared as a stock solution (5 mg/mL) and 20 μL of the MTT working reagent (final concentration 0.5 mg/mL) was added to each well. This was followed by incubation with MTT reagent for 4 h in a humidified atmosphere (37 °C, 5% CO2) with subsequent addition of 150 μL of DMSO solubilizing solvent and incubation for 20 min. The absorbance of solubilized violet formazan crystals was measured at 540 nm with Biotek 800 TS microplate reader. IC50 was calculated as the concentration of retinoid that produced 50% cell growth inhibition. For cytotoxicity assessment, WI-38 normal human fibroblast cells were used for the calculation of SI which is the ratio of IC50 retinoid (WI-38)/IC50 retinoid (cancer cell line).

Bax = assay: Gene expression analysis (qPCR) in Caco-2 cells; conditions: Caco-2, IC50, 24 h, relative to 0.1% DMSO control
Protocol: (§1) Sensitive cancer cell line (Caco-2) was used for gene expression analysis of different genes controlling differentiation, apoptosis, tumor resistance, aggressiveness, and metastasis. […] After incubation, cells were harvested, and the total RNA was purified using Favor-Prep^TM Blood/Cultured cell total RNA purification mini kit (Favorgen Biotech Corp., Ping-Tung, Taiwan). RNA was reverse transcribed into the first-strand cDNA using Revert Aid First Strand cDNA Synthesis Kit (Thermo Scientific, Waltham, MA, USA). HERA^PLUS SYBR® Green qPCR Kit (Willowfort, Nottingham, UK) was utilized in quantitative polymerase chain reactions (qPCR). Gene expression was analyzed and quantified using the 2ˆ^−ΔΔCT method.

Caspase-3 (Cas-3) = assay: Gene expression analysis (qPCR) in Caco-2 cells; conditions: Caco-2, IC50, 24 h, relative to 0.1% DMSO control
Protocol: as §1

Caspase-8 (Cas-8) = assay: Gene expression analysis (qPCR) in Caco-2 cells; conditions: Caco-2, IC50, 24 h, relative to 0.1% DMSO control
Protocol: as §1

E-cadherin = assay: Gene expression analysis (qPCR) in Caco-2 cells; conditions: Caco-2, IC50, 24 h, relative to 0.1% DMSO control
Protocol: as §1

RAI2 = assay: Gene expression analysis (qPCR) in Caco-2 cells; conditions: Caco-2, IC50, 24 h, relative to 0.1% DMSO control
Protocol: as §1

RAR-α = assay: Gene expression analysis (qPCR) in Caco-2 cells; conditions: Caco-2, IC50, 24 h, relative to 0.1% DMSO control, normalized to GAPDH
Protocol: as §1

RAR-β = assay: Gene expression analysis (qPCR) in Caco-2 cells; conditions: Caco-2, IC50, 24 h, relative to 0.1% DMSO control, normalized to GAPDH
Protocol: as §1

RAR-γ = assay: Gene expression analysis (qPCR) in Caco-2 cells; conditions: Caco-2, IC50, 24 h, relative to 0.1% DMSO control, normalized to GAPDH
Protocol: as §1

WRN = assay: Gene expression analysis (qPCR) in Caco-2 cells; conditions: Caco-2, IC50, 24 h, relative to 0.1% DMSO control
Protocol: as §1

cytochrome-C (Cyt-C) = assay: Gene expression analysis (qPCR) in Caco-2 cells; conditions: Caco-2, IC50, 24 h, relative to 0.1% DMSO control
Protocol: as §1

p53 = assay: Gene expression analysis (qPCR) in Caco-2 cells; conditions: Caco-2, IC50, 24 h, relative to 0.1% DMSO control
Protocol: as §1

Cytochrome-C = assay: Immunocytochemistry of cytosolic Cyt-C in Caco-2 cells; conditions: Caco-2, IC50, 24 h, compared to 0.1% DMSO control
Protocol: Caco-2 cells were seeded onto coverslips at a density of 1 × 10^6 cells using 0.1 mg/mL Poly-L-Lysine (Sigma-Aldrich, St. Louis, MO, USA) for immunocytochemistry (ICC) analysis. After treatment with IC50 of retinoids, cells were fixed in formalin neutral buffer (FNB) solution. The fixed cells were permeabilized with 0.1% Triton-x 100 and then blocked in 1% bovine serum albumin (BSA, prepared in PBS containing 0.1% Tween 20) for 30 min. Then, cells were incubated with Alexa Fluor® 488-conjugated anti-cytochrome C antibody overnight. After incubation, nuclei of cells were stained with Hoechst 33,258 (Sigma-Aldrich, St. Louis, MO, USA, 1:500). The coverslips were mounted in anti-fading medium (0.1% p-phenylenediamine, dissolved in 90% glycerin/PBS) and cytochrome C protein expression was detected using Carl Zeiss LSM 710 confocal microscope.

**Q.** Which results are given for `CC1=C(/C=C/C(C)=C/C=C/C(C)=C/C(=O)O)C(C)(C)CCC1` [ATRA, All-trans retinoic acid, reference compound]?
**A.** % G0-G1 (Caco-2 cells [1]; 12 h treatment): 26.1 ± 3.6%; % G2M (Caco-2 cells [1]; 12 h treatment): 16.3 ± 1.9 %; % S (Caco-2 cells [1]; 12 h treatment): 57.5 ± 8.1 %; % SubG0-G1 (Caco-2 cells [1]; 12 h treatment): 0.14 ± 0.1%; %G2M/G0-G1 (Caco-2 cells [1]; 12 h treatment): 62.5 ± 8.8 %; % G0-G1 (Caco-2 cells [1]; 24 h treatment): 37.1 ± 4.5%; % G2M (Caco-2 cells [1]; 24 h treatment): 31.8 ± 4.8 %; % S (Caco-2 cells [1]; 24 h treatment): 29.5 ± 3.5%; % SubG0-G1 (Caco-2 cells [1]; 24 h treatment): 1.6 ± 0.19 %; %G2M/G0-G1 (Caco-2 cells [1]; 24 h treatment): 85.7 ± 16.3 %; inhibition in Caco-2 cell invasion compared to control (Caco-2 cells [2]): 3.8%; percentage inhibition of Caco-2 cell invasion (Caco-2 cells [2]): 8.6%

**Q.** How did the “SI (selectivity index)” value (HT-29) turn out when `CC1(C)CCC(C)(C)c2cc(C#Cc3cccc(C(=O)O)c3)ccc21` [EC19, 3-(5,5,8,8-tetramethyl-5,6,7,8-tetrahydronaphthalen-2-ylethynyl) benzoic acid] was run?
**A.** <1

**Q.** What about the IC50 (HT-29) of the same molecule?
**A.** > 100 µM

**Q.** And the “% G0-G1” value (Caco-2 cells [1]; 12 h treatment)?
**A.** 39.1 ± 6.7%

**Q.** What about the “% G2M” value (Caco-2 cells [1]; 12 h treatment) of the same molecule?
**A.** 9.1 ± 1.3 %

**Q.** What about the “% S” value (Caco-2 cells [1]; 12 h treatment) of the same molecule?
**A.** 51.5 ± 7.2 %

**Q.** What about the “% SubG0-G1” value (Caco-2 cells [1]; 12 h treatment) of the same molecule?
**A.** 0.29 ± 0.1%

**Q.** And the “%G2M/G0-G1” value (Caco-2 cells [1]; 12 h treatment)?
**A.** 23.4 ± 2.8 %

**Q.** What about the “% G0-G1” value (Caco-2 cells [1]; 24 h treatment) of the same molecule?
**A.** 29.0 ± 4.1%

**Q.** What about the “% G2M” value (Caco-2 cells [1]; 24 h treatment) of the same molecule?
**A.** 22.5 ± 3.1 %

**Q.** What about the “% S” value (Caco-2 cells [1]; 24 h treatment) of the same molecule?
**A.** 44.0 ± 8.2 %

**Q.** What about the “% SubG0-G1” value (Caco-2 cells [1]; 24 h treatment) of the same molecule?
**A.** 4.5 ± 0.6 %

**Q.** What about the “%G2M/G0-G1” value (Caco-2 cells [1]; 24 h treatment) of the same molecule?
**A.** 77.6 ± 10.8 %

**Q.** What about the “inhibition in Caco-2 cell invasion compared to control” value (Caco-2 cells [2]) of the same molecule?
**A.** 7.2%

**Q.** And the “percentage inhibition of Caco-2 cell invasion” value (Caco-2 cells [2])?
**A.** 17.2%

**Q.** And the “Bax gene expression, fold change” value (Bax)?
**A.** 1.9 fold

**Q.** What about the “Cas-3 gene expression, fold change” value (Caspase-3 (Cas-3)) of the same molecule?
**A.** 8.6 fold

**Q.** And the “Cas-8 gene expression, fold change” value (Caspase-8 (Cas-8))?
**A.** 7.1 fold

**Q.** What about the “E-cadherin gene expression, fold change” value (E-cadherin) of the same molecule?
**A.** 54 fold

**Q.** And the “RAI2 gene expression, fold change” value (RAI2)?
**A.** 4.4 fold

**Q.** What about the “RAR-α gene expression, fold increase” value (RAR-α) of the same molecule?
**A.** 2.6 fold

**Q.** What about the “RAR-β gene expression, fold increase” value (RAR-β) of the same molecule?
**A.** 131 fold

**Q.** What about the “RAR-γ gene expression, fold increase” value (RAR-γ) of the same molecule?
**A.** without affecting

**Q.** And the “WRN gene expression, fold change” value (WRN)?
**A.** ~ 40 fold

**Q.** And the “Cyt-C gene expression, fold change” value (cytochrome-C (Cyt-C))?
**A.** 3.6 fold

**Q.** What about the “p53 gene expression, fold change” value (p53) of the same molecule?
**A.** 1.2 fold

**Q.** And the “cytosolic Cyt-C protein released (anti-Cyt-C fluorescence intensity)” value (Cytochrome-C)?
**A.** significant increase

**Q.** For `CC1(C)CCC(C)(C)c2cc(C#Cc3ccc(C(=O)O)cc3)ccc21` [EC23, 4-(5,5,8,8-tetramethyl-5,6,7,8-tetrahydronaphthalen-2-ylethynyl) benzoic acid], which “SI (selectivity index)” value (HT-29) is on record?
**A.** <1

**Q.** What about the IC50 (HT-29) of the same molecule?
**A.** > 100 µM

**Q.** What about the “% G0-G1” value (Caco-2 cells [1]; 12 h treatment) of the same molecule?
**A.** 58.7 ± 8.2%

**Q.** What about the “% G2M” value (Caco-2 cells [1]; 12 h treatment) of the same molecule?
**A.** 6.8 ± 0.8 %

**Q.** And the “% S” value (Caco-2 cells [1]; 12 h treatment)?
**A.** 34.0 ± 4.1%

**Q.** What about the “% SubG0-G1” value (Caco-2 cells [1]; 12 h treatment) of the same molecule?
**A.** 0.46 ± 0.1%

**Q.** And the “%G2M/G0-G1” value (Caco-2 cells [1]; 12 h treatment)?
**A.** 11.6 ± 1.7 %

**Q.** And the “% G0-G1” value (Caco-2 cells [1]; 24 h treatment)?
**A.** 32.7 ± 4.6%

**Q.** What about the “% G2M” value (Caco-2 cells [1]; 24 h treatment) of the same molecule?
**A.** 15.8 ± 1.9 %

**Q.** And the “% S” value (Caco-2 cells [1]; 24 h treatment)?
**A.** 47.6 ± 9.1 %

**Q.** And the “% SubG0-G1” value (Caco-2 cells [1]; 24 h treatment)?
**A.** 3.9 ± 0.43 %

**Q.** What about the “%G2M/G0-G1” value (Caco-2 cells [1]; 24 h treatment) of the same molecule?
**A.** 48.3 ± 6.8 %

**Q.** And the “inhibition in Caco-2 cell invasion compared to control” value (Caco-2 cells [2])?
**A.** 4.8%

**Q.** What about the “percentage inhibition of Caco-2 cell invasion” value (Caco-2 cells [2]) of the same molecule?
**A.** 15.8%

**Q.** What about the “Bax gene expression, fold change” value (Bax) of the same molecule?
**A.** not able to induce any significant change

**Q.** And the “Cas-3 gene expression, fold change” value (Caspase-3 (Cas-3))?
**A.** did not induce significant expression

**Q.** And the “Cas-8 gene expression, fold change” value (Caspase-8 (Cas-8))?
**A.** did not induce significant expression

**Q.** And the “E-cadherin gene expression, fold change” value (E-cadherin)?
**A.** 16.3 fold

**Q.** What about the “RAI2 gene expression, fold change” value (RAI2) of the same molecule?
**A.** 1.6 fold

**Q.** And the “RAR-α gene expression, fold increase” value (RAR-α)?
**A.** no effect

**Q.** And the “RAR-β gene expression, fold increase” value (RAR-β)?
**A.** no effect

**Q.** What about the “RAR-γ gene expression, fold increase” value (RAR-γ) of the same molecule?
**A.** 2.3 fold

**Q.** What about the “WRN gene expression, fold change” value (WRN) of the same molecule?
**A.** ~ 40 fold

**Q.** And the “Cyt-C gene expression, fold change” value (cytochrome-C (Cyt-C))?
**A.** 2.8 fold

**Q.** And the “p53 gene expression, fold change” value (p53)?
**A.** did not induce p53 upregulation

**Q.** What about the “cytosolic Cyt-C protein released (anti-Cyt-C fluorescence intensity)” value (Cytochrome-C) of the same molecule?
**A.** second rank
